Target: VEGFR II (KDR) kinase (Homo sapiens, UniProt P35968)
Test: Inhibition of KDR kinase activity (33P-ATP incorporation into poly-(Glu4Tyr), phosphocellulose filter)
Format: biochemical
Details: 10 minutes at room temperature; substrate poly-(Glu4Tyr)
Experimental: Stock solutions Stock solution A: 3 mM ATP in water pH 7.0 (−70° C.) Stock solution B: g-33P-ATP 1mCi/100 μl Stock solution C: poly-(Glu4Tyr) 10 mg/ml in water
• Substrate solvent: 10 mM DTT, 10 mM manganese chloride 100 mM magnesium chloride • Enzyme solution: 120 mM Tris/HCl, pH 7,5, 10 μM sodium vanadium oxide
10 μl of substrate mix [10 μl vol ATP stock solution A+25 μCi g-33P-ATP (ca. 2.5 μl of stock solution B)+30 μl poly-(Glu4Tyr) stock solution C+1.21 ml substrate solvent], 10 μl inhibitor solution [substances corresponding to the dilutions, as a control 3% DMSO in substrate solvent] and 10 μl enzyme solution [11.25 μg enzyme stock solution (KDR or FLT-1 kinase) are diluted at 4° C. in 1.25 ml enzyme solution], are added to a tapering microtitre plate (without protein binding). The mixture is mixed thoroughly and incubated for 10 minutes at room temperature. Subsequently, 10 μl of stop solution (250 mM EDTA, pH 7.0) is added, mixed and 10 μl of the solution transferred to a P 81 phosphocellulose filter. Is is subsequently washed several times in 0.1 M phosphoric acid. The filter paper is dried, coated with MeltiLex and measured in a MicroBeta counter.
The IC50 values are determined from the concentration of inhibitor required to inhibit the phosphate incorporation to 50% of the uninhibited incorporation after deducting the reference value (EDTA-stopped reaction).

Chain of VEGFR II (KDR) kinase (P35968 20-1356, species assumed): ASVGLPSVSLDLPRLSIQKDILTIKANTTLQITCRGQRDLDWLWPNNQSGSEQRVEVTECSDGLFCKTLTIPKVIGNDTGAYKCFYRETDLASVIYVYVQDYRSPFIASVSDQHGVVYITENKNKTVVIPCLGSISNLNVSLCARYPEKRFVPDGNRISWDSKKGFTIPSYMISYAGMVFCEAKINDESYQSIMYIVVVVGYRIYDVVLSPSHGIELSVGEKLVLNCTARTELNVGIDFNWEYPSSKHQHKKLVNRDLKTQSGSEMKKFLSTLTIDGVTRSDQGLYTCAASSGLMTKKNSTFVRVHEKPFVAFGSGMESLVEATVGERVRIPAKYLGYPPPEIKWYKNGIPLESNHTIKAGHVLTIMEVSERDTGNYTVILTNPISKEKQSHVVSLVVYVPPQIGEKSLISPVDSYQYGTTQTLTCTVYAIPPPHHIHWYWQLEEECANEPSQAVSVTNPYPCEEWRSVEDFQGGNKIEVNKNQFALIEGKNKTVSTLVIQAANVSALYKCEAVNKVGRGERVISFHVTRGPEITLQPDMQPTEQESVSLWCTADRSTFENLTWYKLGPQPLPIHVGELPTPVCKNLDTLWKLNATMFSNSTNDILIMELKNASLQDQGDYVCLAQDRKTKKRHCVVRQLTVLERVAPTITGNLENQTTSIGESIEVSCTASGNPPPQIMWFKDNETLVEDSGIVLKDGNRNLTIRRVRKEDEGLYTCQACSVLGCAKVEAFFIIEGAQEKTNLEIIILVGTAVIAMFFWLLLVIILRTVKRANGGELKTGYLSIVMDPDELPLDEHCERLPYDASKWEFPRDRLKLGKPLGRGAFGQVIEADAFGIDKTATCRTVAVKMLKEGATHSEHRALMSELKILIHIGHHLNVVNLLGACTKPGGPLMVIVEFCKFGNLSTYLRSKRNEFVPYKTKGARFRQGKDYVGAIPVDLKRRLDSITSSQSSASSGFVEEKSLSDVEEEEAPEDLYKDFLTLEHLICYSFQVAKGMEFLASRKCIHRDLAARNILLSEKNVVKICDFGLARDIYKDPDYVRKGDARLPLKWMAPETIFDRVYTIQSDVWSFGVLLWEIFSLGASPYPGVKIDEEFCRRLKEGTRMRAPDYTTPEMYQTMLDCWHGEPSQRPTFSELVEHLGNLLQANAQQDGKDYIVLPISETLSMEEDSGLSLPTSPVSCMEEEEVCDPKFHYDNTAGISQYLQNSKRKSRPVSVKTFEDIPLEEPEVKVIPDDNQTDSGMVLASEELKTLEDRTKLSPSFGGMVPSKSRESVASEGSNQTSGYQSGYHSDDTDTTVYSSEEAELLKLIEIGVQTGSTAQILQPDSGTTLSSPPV

| IC50 [nM] | SMILES |
| --- | --- |
| 200 | O=C(Nc1cccc(C(F)(F)F)c1)c1cncnc1NCc1ccncc1 [Example 2.1] |
| 100 | O=C(Nc1cc2ccccc2cn1)c1cncnc1NCc1ccncc1 [Example 2.0, N-isoquinolin-3-yl-4-[(4-pyridyl)methyl]amino-pyrimidine-5-carboxylic acid amide] |

Reference: patent US20110071165A1, “Aza- and polyazanthranyl amides and their use as medicaments” (NOVARTIS AG, priority 2000, published 2011)
